This series is described as follows: Circular dichroism spectra and thermal melting of CMPs. Format: physicochemical. The protocol: Circular dichroism spectroscopy. CD spectra were collected on JASCO 715 spectrophotometer equipped with a JASCO PTC-348 WI temperature controller and quartz cells (0.1 mm path length). CMP solutions (320 μL, 150 μM in 1×PBS) were stored at 4° C. for at least 24 hours before measurement. For photo-decaging, samples were exposed to 365 nm UV light for at least 30 minutes before the 4° C. incubation. The thermal melting studies were performed by measuring the ellipticity at 225 nm with 60° C./hr heating rate. Raw CD signal was normalized to mean residue ellipticity based on the peptide's length and concentration (Biopolymers 95:94-104 (2011)). Melting temperatures (Tm) were determined by fitting the mean residue ellipticity to a two-state model (Org Lett 8:4735-4738 (2006)). To measure the refolding kinetics, CMP solution was thermally denatured at 75° C. for 10 minutes in a cuvette and rapidly quenched to 25° C. in an ice-water bath, after which the CD signal at 225 nm was observed over time at 25° C. The CD spectra of intact and MMP-1 cleaved type I collagen (FIG. 12) was measured in 90 μg/mL protein solutions in 20 mM acetic acid buffer at 22° C. The 37° C. thermal stability profile (FIG. 2E, inset) was generated by monitoring the ellipticity at 222 nm immediately after transferring the cuvette to a temperature controlled cuvette holder pre-set to 37° C. The Tm values reported in this study are approximately 10° C. higher than the equilibrium Tm due to high heating rate (60° C./hr) (Biopolymers 73:682-688 (2004)).
Synthesis of fluorescently labeled collagen mimetic peptides. Non-caged CMPs were synthesized using Fmoc-mediated solid-phase chemistry by manual or automated synthesis as described previously.2,4 The caged NB(GPO)9 (SEQ ID NO: 12) was prepared by introducing Fmoc(N-o-nitrobenzyl)Gly-OH (synthesized according to Tatsu et al. 2,5) in the middle of the standard solid-phase peptide synthesis. The Hyp residue following the NBGly was conjugated using 9 molar equiv of Fmoc-Hyp(tBu)-OH, 8.8 molar equiv of PyBroP, and 20 molar equiv of DIPEA for over 24 hr to overcome the low reactivity caused by the steric hindrance of the NB cage group. The remaining sequence including the GGG spacer was completed by HBTU chemistry, followed by on-resin labeling with 6 molar equivalent of CF or TAMRA activated by 6 molar equivalent of PyAOP for over 24 hr. The full length fluorescent CMPs were cleaved from resin by treating the resin with TFA/TIS/H2O (95:2.5:2.5) for 3 hr and the cleaved peptide was purified by reverse phase HPLC on a Vydac C18 column using a linear gradient mixture of water (0.1% TFA) and acetonitrile (0.1% TFA) (5-45% acetonitrile gradient in 40 min). The purified peptides were analyzed by MALDI-TOF MS (FIG. 27): m/z calculated 2975.1 [M+Na+] for CF(GPO)9 (SEQ ID NO: 10), found 2975.0 [M+Na+]; m/z calculated 2975.1 [M+Na+] for ^SG9P9O9 (SEQ ID NO: 5), found 2973.5 [M+Na+]; m/z calculated 3110.2 [M+Na+] for CF^NB(GPO)9 (SEQ ID NO: 4), found 3109.4 [M+Na+]; m/z calculated 2975.1 [M+Na+] for CF(GPO)9 (SEQ ID NO: 10) [CF^NB(GPO)9 (SEQ ID NO: 4) after UV decaging], found 2974.1 [M+Na+]; m/z calculated 3142.3 [M+H+] for TAMRA-NB(GPO)9 (SEQ ID NO: 12), found 3141.4 [M+H+]; m/z calculated 3007.2 [M+H+] for TAMRA-(GPO)9 (SEQ ID NO: 15), [TAMRA-NB(GPO)9 (SEQ ID NO: 12) after decaging], found 3006.3 [M+H+]. CD spectra and CD melting curves of the labeled CMPs were acquired in PBS solutions using a JASCO 715 CD spectrophotometer. The solutions were incubated for at least 24 hours at 4° C. prior to CD experiment to ensure folding (FIG. 28).

On to CF-GGG-(GPO)4^NBGPO(GPO)4 [CF^NB(GPO)9], for which the “Tm (CD melting curve, triple helix)” value (after UV exposure (photo-decaged), heating rate 60° C./hr, Tm about 10° C. higher than equilibrium Tm) came to 75 °C. Moreover, the “triple helical folding capacity (CD melting)” value runs as follows: (after UV exposure / photo-cleavage of NB cage) “regain its full triple helical folding capacity”; (caged, before UV exposure) “completely suppressed the CMP's ability to fold into a triple helix”. “CF-GGG-PGOGPGPOPOGOGOPPGOOPGGOOPPG [CF^SG9P9O9, reference compound]”: where the note is “sequence-scrambled peptide”, the “triple helical folding capacity (CD melting)” value was “lack of triple helical structure”. In the case of CF-GGG-(GPO)9 [CF(GPO)9], for the setting “non-caged peptide in PBS, CD at 225 nm, 1° C./min heating rate”, the “melting temperature (Tm), CD melting curve” value came to 75 °C.

These data come from US10426850B2, “Collagen mimetic peptides for targeting collagen strands for in vitro and in vivo imaging and therapeutic use” (The Johns Hopkins University, priority 2011, dated 2019).
